The conditions of data set [1]: relative to sucrose, baseline 1.0; cited from earlier work.
The test system of another data set is microbial growth. To be noted: cited from earlier work.
For data set [2] the following is noted: on the palate; reb-M used alone or substantially alone, compared to established rebaudioside sweeteners including reb-A; cited from earlier work.
A short description of data set [3]: Solubility and retention of reb-M in 1,3-propanediol after heating and cooling. In kind it is physicochemical. As to the method:
The solvent or liquid base for the sweetener composition may comprise 1,3-propanediol and optionally one or more additional solvents. […] (175° F.) and cooled to room temperature. […] (36° F.).

For data set [4] the following is noted: room temperature; cited from earlier work.

Values after ≈ are worked out from the molar mass of the structure shown.

Regarding `O=C(CO)[C@@H](O)[C@H](O)[C@H](O)CO` [fructose], in data set [1], the sweetness index entry is recorded as “approximately 1.7”. As for 1,3-propanediol, the “minimum inhibitory concentration (MIC) compared with other solvents such as glycerin” value in the data set with microbial growth is “lower”. Regarding `C=C1C[C@@]23CC[C@H]4[C@@](C)(CCC[C@@]4(C)C(=O)O[C@@H]4O[C@H](CO)[C@@H](O)[C@H](O)[C@H]4O)[C@@H]2CC[C@]1(O[C@@H]1O[C@H](CO)[C@@H](O)[C@H](O[C@@H]2O[C@H](CO)[C@@H](O)[C@H](O)[C@H]2O)[C@H]1O[C@@H]1O[C@H](CO)[C@@H](O)[C@H](O)[C@H]1O)C3` [reb-A, Rebaudioside A], in data set [2], the bitter aftertaste result is reported as “bitter aftertaste”. `OC[C@H]1O[C@@](CO)(O[C@H]2O[C@H](CO)[C@@H](O)[C@H](O)[C@H]2O)[C@@H](O)[C@@H]1O` [sucrose]: the sweetness index in data set [1] is recorded as 1.0. Turning to `C=C1C[C@@]23CC[C@H]4[C@@](C)(CCC[C@@]4(C)C(=O)O[C@@H]4O[C@H](CO)[C@@H](O)[C@H](O[C@@H]5O[C@H](CO)[C@@H](O)[C@H](O)[C@H]5O)[C@H]4O[C@@H]4O[C@H](CO)[C@@H](O)[C@H](O)[C@H]4O)[C@@H]2CC[C@]1(O[C@@H]1O[C@H](CO)[C@@H](O)[C@H](O[C@@H]2O[C@H](CO)[C@@H](O)[C@H](O)[C@H]2O)[C@H]1O[C@@H]1O[C@H](CO)[C@@H](O)[C@H](O)[C@H]1O)C3` [reb-M, rebaudioside-M], the solubility in data set [3] (1,3-propanediol, organic solvent or mixture, thermodynamic from solid, solvent heated in excess of 80° C. (175° F.) and cooled to room temperature) was approximately 795 mg/mL (≈ 616 mM). Also, the figures for the “retention in solution on cooling” value in data set [3] (heated 1,3-propanediol solution cooled back to room temperature) and in data set [3] (heated 1,3-propanediol solution cooled to approximately 2° C. (36° F.)) were “retained in the solution” and “retained in solution”, respectively. The bitter aftertaste result in data set [2] was “reduced bitterness of aftertaste”. Moreover, the solubility in water result in data set [4] is given as “up to 0.1 g per 100 ml water”.

What is called solubility is how much of the substance goes into solution per volume.

The values are drawn from patent US11825868B2, “Sweetener composition” (Hapy Sweet Bee Ltd, priority 2019, dated 2023).
